Data: US20250186437A1, “CARBOLINE COMPOUNDS AND USE THEREOF” (PTC Therapeutics, Inc., priority 2021, published 2025)

System: MOLM-13 cells
Assay: MOLM-13 Cell Proliferation Assay (indicator of DHODH inhibition)
Assay type: cell-based
Conditions: Homo sapiens, 72 Hours of culture, CellTiter-Glo, no uridine
Method in brief: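 Proliferation readout via CellTiter-Glo luminescence after 72 h compound treatment (37 °C, 5% CO2, 0.5% DMSO) of MOLM-13 cells seeded at 10^4 per well in RPMI 1640/10% FBS, used as a DHODH-inhibition indicator since these cells rely on de novo pyrimidine synthesis.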

SMILES | IC50 [nM]
Cc1nc(N2CCc3c([nH]c4ccc(Cl)c(F)c34)C2c2cccc(F)c2F)ncc1F (stereo not drawn) [Compound 113, 6-chloro-1-(2,3-difluorophenyl)-5-fluoro-2-(5-fluoro-4-methylpyrimidin-2-yl)-2,3,4,9-tetrahydro-1H-pyrido[3,4-b]indole] | 2.6
Cc1nc(C)nc(N2CCc3c([nH]c4ccc(Cl)cc34)C2c2ccc(F)cc2F)n1 (stereo not drawn) [Compound 451, 6-chloro-1-(2,4-difluorophenyl)-2-(4,6-dimethyl-1,3,5-triazin-2-yl)-2,3,4,9-tetrahydro-1H-pyrido[3,4-b]indole] | 8
Cc1ccnc(N2CCc3c([nH]c4ccc(Cl)cc34)C2c2ccc(C)c(F)c2F)n1 (stereo not drawn) [Compound 203, 6-chloro-1-(2,3-difluoro-4-methylphenyl)-2-(4-methylpyrimidin-2-yl)-2,3,4,9-tetrahydro-1H-pyrido[3,4-b]indole] | 1.6
CC(C)c1ccnc(N2CCc3c([nH]c4cc(F)c(Cl)cc34)C2c2ccc(F)cc2)n1 (stereo not drawn) [Compound 23, 6-chloro-7-fluoro-1-(4-fluorophenyl)-2-[4-(propan-2-yl)pyrimidin-2-yl]-2,3,4,9-tetrahydro-1H-pyrido[3,4-b]indole] | 45.4
Cc1ccc(C2c3[nH]c4cc(F)c(Cl)cc4c3CCN2c2ncc(Cl)cn2)c(F)c1F (stereo not drawn) [Compound 130, 6-chloro-2-(5-chloropyrimidin-2-yl)-1-(2,3-difluoro-4-methylphenyl)-7-fluoro-2,3,4,9-tetrahydro-1H-pyrido[3,4-b]indole] | 5.8
Fc1ccc(C2c3[nH]c4ccc(Cl)c(F)c4c3CCN2c2ncc(Cl)cn2)cc1 (stereo not drawn) [Compound 49, 6-chloro-2-(5-chloropyrimidin-2-yl)-5-fluoro-1-(4-fluorophenyl)-2,3,4,9-tetrahydro-1H-pyrido[3,4-b]indole] | 21.2
Cc1ccc(C2c3[nH]c4ccc(Cl)cc4c3CCN2c2nccc(C(F)(F)F)n2)cc1O (stereo not drawn) [Compound 258, 5-{6-chloro-2-[4-(trifluoromethyl)pyrimidin-2-yl]-2,3,4,9-tetrahydro-1H-pyrido[3,4-b]indol-1-yl}-2-methylphenol] | 28.3
Cc1ccc(C2c3[nH]c4ccc(C)c(F)c4c3CCN2c2nccc(C(F)(F)F)n2)cc1 (stereo not drawn) [Compound 174, 5-fluoro-6-methyl-1-(4-methylphenyl)-2-[4-(trifluoromethyl)pyrimidin-2-yl]-2,3,4,9-tetrahydro-1H-pyrido[3,4-b]indole] | 7.8
FC(F)(F)c1cnnc(N2CCc3c([nH]c4ccc(Cl)cc34)C2c2cnc(N3CCOCC3)nc2)n1 (stereo not drawn) [Compound 383, 6-chloro-1-[2-(morpholin-4-yl)pyrimidin-5-yl]-2-[5-(trifluoromethyl)-1,2,4-triazin-3-yl]-2,3,4,9-tetrahydro-1H-pyrido[3,4-b]indole] | 1.6
N#Cc1ccc(C2c3[nH]c4ccc(Cl)c(F)c4c3CCN2c2ncc(F)cn2)cc1 (stereo not drawn) [Compound 56, 4-[6-chloro-5-fluoro-2-(5-fluoropyrimidin-2-yl)-2,3,4,9-tetrahydro-1H-pyrido[3,4-b]indol-1-yl]benzonitrile] | 25.7
Cc1ccc(C2c3[nH]c4ccc(Cl)c(F)c4c3CCN2c2ncc(F)c(C#N)n2)c(F)c1F (stereo not drawn) [Compound 214, 2-[6-chloro-1-(2,3-difluoro-4-methylphenyl)-5-fluoro-1,3,4,9-tetrahydro-2H-pyrido[3,4-b]indol-2-yl]-5-fluoropyrimidine-4-carbonitrile] | 0.5
COc1ccc2[nH]c3c(c2c1)CCN(c1nc(C(F)(F)F)cc(C(F)(F)F)n1)[C@H]3c1ccc(C)c(F)c1F [Compound 528, (1S)-2-[4,6-bis(trifluoromethyl)pyrimidin-2-yl]-1-(2,3-difluoro-4-methylphenyl)-6-methoxy-2,3,4,9-tetrahydro-1H-pyrido[3,4-b]indole] | 1.2
Cc1cnn(-c2ccc3[nH]c4c(c3c2)CCN(c2nc(C(F)(F)F)cc(C(F)(F)F)n2)[C@H]4c2ccc(C)c(F)c2F)n1 [Compound 520, (1S)-2-[4,6-bis(trifluoromethyl)pyrimidin-2-yl]-1-(2,3-difluoro-4-methylphenyl)-6-(4-methyl-2H-1,2,3-triazol-2-yl)-2,3,4,9-tetrahydro-1H-pyrido[3,4-b]indole] | 1.7
Cc1cnn(-c2ccc3[nH]c4c(c3c2)CCN(c2nc(C(F)(F)F)nc(C(F)(F)F)n2)[C@H]4c2ccc(C)c(F)c2F)c1 [Compound 529, (1S)-2-[4,6-bis(trifluoromethyl)-1,3,5-triazin-2-yl]-1-(2,3-difluoro-4-methylphenyl)-6-(4-methyl-1H-pyrazol-1-yl)-2,3,4,9-tetrahydro-1H-pyrido[3,4-b]indole] | 4.1
Cc1cccc(C2c3[nH]c4ccc(Cl)cc4c3CCN2c2nccc(C(F)(F)F)n2)c1F (stereo not drawn) [Compound 259, 6-chloro-1-(2-fluoro-3-methylphenyl)-2-[4-(trifluoromethyl)pyrimidin-2-yl]-2,3,4,9-tetrahydro-1H-pyrido[3,4-b]indole] | 1

The remaining lines, values ahead:

IC50 [nM] | SMILES
110 | Cc1ncc(C2c3[nH]c4cc(F)c(Cl)cc4c3CCN2c2ncc(Cl)cn2)cn1 (stereo not drawn) [Compound 101, 6-chloro-2-(5-chloropyrimidin-2-yl)-7-fluoro-1-(2-methylpyrimidin-5-yl)-2,3,4,9-tetrahydro-1H-pyrido[3,4-b]indole]
3.7 | Cc1ccc([C@H]2c3[nH]c4ccc(Cl)cc4c3CCN2c2nc(C)nc(C#N)n2)cc1 [Compound 411, 4-[(1S)-6-chloro-1-(4-methylphenyl)-1,3,4,9-tetrahydro-2H-pyrido[3,4-b]indol-2-yl]-6-methyl-1,3,5-triazine-2-carbonitrile]
4.7 | CC(=O)c1ncc([C@H]2c3[nH]c4ccc(Cl)cc4c3CCN2c2nc(C(F)(F)F)nc(C(F)(F)F)n2)cn1 [Compound 533, 1-(5-{(1S)-2-[4,6-bis(trifluoromethyl)-1,3,5-triazin-2-yl]-6-chloro-2,3,4,9-tetrahydro-1H-pyrido[3,4-b]indol-1-yl}pyrimidin-2-yl)ethan-1-one]
7.9 | CN(C)c1ncc(C2c3[nH]c4ccc(Cl)c(F)c4c3CCN2c2ncc(F)cn2)cn1 (stereo not drawn) [Compound 201, 5-[6-chloro-5-fluoro-2-(5-fluoropyrimidin-2-yl)-2,3,4,9-tetrahydro-1H-pyrido[3,4-b]indol-1-yl]-N,N-dimethylpyrimidin-2-amine]
0.6 | Cc1ccc(C2c3[nH]c4ccc(Cl)cc4c3CCN2c2nc(Cl)cc(Cl)n2)cc1 (stereo not drawn) [Compound 7, 6-chloro-2-(4,6-dichloropyrimidin-2-yl)-1-(4-methylphenyl)-2,3,4,9-tetrahydro-1H-pyrido[3,4-b]indole]
35.4 | Fc1cnc(N2CCc3c([nH]c4cc(F)c(Cl)cc34)C2c2ccc(Cl)cc2)nc1 (stereo not drawn) [Compound 11, 6-chloro-1-(4-chlorophenyl)-7-fluoro-2-(5-fluoropyrimidin-2-yl)-2,3,4,9-tetrahydro-1H-pyrido[3,4-b]indole]
66.1 | CN1CCN(c2ncc([C@H]3c4[nH]c5ccc(Cl)cc5c4CCN3c3nc(N4CCN(C)CC4)nc(C(F)(F)F)n3)cn2)CC1 [Compound 479, (1S)-6-chloro-1-[2-(4-methylpiperazin-1-yl)pyrimidin-5-yl]-2-[4-(4-methylpiperazin-1-yl)-6-(trifluoromethyl)-1,3,5-triazin-2-yl]-2,3,4,9-tetrahydro-1H-pyrido[3,4-b]indole]
9.8 | Cc1ccc(C2c3[nH]c4ccc(Cl)c(F)c4c3CCN2c2ncc(Cl)cn2)cc1 (stereo not drawn) [Compound 21, 6-chloro-2-(5-chloropyrimidin-2-yl)-5-fluoro-1-(4-methylphenyl)-2,3,4,9-tetrahydro-1H-pyrido[3,4-b]indole]
58.5 | Fc1cc(-n2ccnc2)ccc1C1c2[nH]c3ccc(Cl)cc3c2CCN1c1ncccn1 (stereo not drawn) [Compound 274, 6-chloro-1-[2-fluoro-4-(1H-imidazol-1-yl)phenyl]-2-(pyrimidin-2-yl)-2,3,4,9-tetrahydro-1H-pyrido[3,4-b]indole]
1.4 | CN1CCN(c2ncc([C@H]3c4[nH]c5ccc(-n6nccn6)cc5c4CCN3c3nc(C(F)(F)F)nc(C(F)(F)F)n3)cn2)CC1 [Compound 501, (1S)-2-[4,6-bis(trifluoromethyl)-1,3,5-triazin-2-yl]-1-[2-(4-methylpiperazin-1-yl)pyrimidin-5-yl]-6-(2H-1,2,3-triazol-2-yl)-2,3,4,9-tetrahydro-1H-pyrido[3,4-b]indole]
2.8 | CC1(C)CN(c2ncc([C@H]3c4[nH]c5ccc(Cl)cc5c4CCN3c3nc(C(F)(F)F)cc(C(F)(F)F)n3)cn2)CCN1 [Compound 496, (1S)-2-[4,6-bis(trifluoromethyl)pyrimidin-2-yl]-6-chloro-1-[2-(3,3-dimethylpiperazin-1-yl)pyrimidin-5-yl]-2,3,4,9-tetrahydro-1H-pyrido[3,4-b]indole]
31.9 | Cc1nc(C)nc(N2CCc3c([nH]c4ccc(Cl)c(N)c34)C2c2cnc(N3CCOCC3)nc2)n1 (stereo not drawn) [Compound 327, 6-chloro-2-(4,6-dimethyl-1,3,5-triazin-2-yl)-1-[2-(morpholin-4-yl)pyrimidin-5-yl]-2,3,4,9-tetrahydro-1H-pyrido[3,4-b]indol-5-amine]
4.1 | Clc1ccc2[nH]c3c(c2c1)CCN(c1ncc(-c2ccccc2)cn1)[C@H]3c1cnc(N2CCOCC2)nc1 [Compound 472, (1S)-6-chloro-1-[2-(morpholin-4-yl)pyrimidin-5-yl]-2-(5-phenylpyrimidin-2-yl)-2,3,4,9-tetrahydro-1H-pyrido[3,4-b]indole]
23.2 | Cc1ccc([C@@H]2c3[nH]c4ccc(Cl)cc4c3CCN2c2ncc(F)cn2)c(F)c1F [Compound 179, (1R)-6-chloro-1-(2,3-difluoro-4-methylphenyl)-2-(5-fluoropyrimidin-2-yl)-2,3,4,9-tetrahydro-1H-pyrido[3,4-b]indole]
0.7 | FC(F)(F)c1ncnc(N2CCc3c([nH]c4ccc(-n5nccn5)cc34)[C@@H]2c2ccc(N3CCOCC3)nc2)n1 [Compound 498, (1S)-1-[6-(morpholin-4-yl)pyridin-3-yl]-6-(2H-1,2,3-triazol-2-yl)-2-[4-(trifluoromethyl)-1,3,5-triazin-2-yl]-2,3,4,9-tetrahydro-1H-pyrido[3,4-b]indole]
